Source: PubChem BioAssay (NCI)
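Assay format: 96-well plates, 48-hour exposure. Here, GI50 denotes the concentration required for 50% inhibition of growth. TGI marks complete inhibition of growth.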

Tests used:
Assay in all cases: NCI anticancer screen, dose series, 48 h
[1] = test system: SK-OV-3 ovarian
[2] = test system: HCC-2998 colon
[3] = test system: 786-0 renal
[4] = test system: OVCAR-4 ovarian
[5] = test system: SK-MEL-2 melanoma
[6] = test system: UACC-257 melanoma
[7] = test system: SR leukemia
[8] = test system: NCI/ADR-RES ovarian
[9] = test system: HCT-116 colon
[10] = test system: COLO 205 colon
[11] = test system: T-47D breast
[12] = test system: CCRF-CEM leukemia
[13] = test system: OVCAR-8 ovarian
[14] = test system: SN12C renal
[15] = test system: NCI-H522 lung
[16] = test system: NCI-H460 lung
[17] = test system: SF-295 CNS
[18] = test system: KM12 colon
[19] = test system: SK-MEL-28 melanoma
[20] = test system: MALME-3M melanoma
[21] = test system: HOP-62 NSCLC
[22] = test system: SNB-19 CNS
[23] = test system: SNB-75 CNS
[24] = test system: OVCAR-5 ovarian
[25] = test system: HOP-92 NSCLC
[26] = test system: UO-31 renal
[27] = test system: DU-145 prostate
[28] = test system: RXF 393 renal
[29] = test system: K-562 leukemia
[30] = test system: A498 renal
[31] = test system: MOLT-4 leukemia
[32] = test system: MDA-MB-435
[33] = test system: OVCAR-3 ovarian
[34] = test system: RPMI-8226 leukemia
[35] = test system: CAKI-1 renal
[36] = test system: LOX IMVI melanoma
[37] = test system: NCI-H226 lung
[38] = test system: SF-539 CNS
[39] = test system: SF-268 CNS
[40] = test system: PC-3 prostate
[41] = test system: EKVX NSCLC
[42] = test system: TK-10 renal
[43] = test system: SK-MEL-5 melanoma
[44] = test system: BT-549 breast
[45] = test system: A549 NSCLC
[46] = test system: HT29 colon
[47] = test system: HS 578T breast
[48] = test system: M14 melanoma
[49] = test system: U251 CNS
[50] = test system: SW-620 colon
[51] = test system: ACHN renal
[52] = test system: UACC-62 melanoma
[53] = test system: HCT-15 colon
[54] = test system: IGROV1 ovarian
[55] = test system: MDA-MB-231 breast
[56] = test system: MCF7 breast
[57] = test system: NCI-H23 lung

## COc1ccc(N=C2NN=C(c3c[nH]c4ccccc34)CS2)cc1OC
[1]
  GI50: 14.2 µM
  TGI: > 100 µM
[2]
  GI50: 9.57 µM
  TGI: > 48.3 µM
[3]
  GI50: 12 µM
  TGI: > 91.5 µM
[4]
  GI50: 16 µM
  TGI: > 100 µM
[5]
  GI50: > 100 µM
  TGI: > 100 µM
[6]
  GI50: 11.1 µM
  TGI: > 56.6 µM
[7]
  GI50: 0.181 µM
  TGI: > 100 µM
[8]
  GI50: 3.15 µM
  TGI: > 28 µM
[9]
  GI50: 8.25 µM
  TGI: > 100 µM
[10]
  GI50: 6.55 µM
  TGI: > 76.5 µM
[11]
  GI50: 5.04 µM
  TGI: > 73.3 µM
[12]
  GI50: 3.7 µM
  TGI: > 100 µM
[13]
  GI50: 22.7 µM
  TGI: > 89.9 µM
[14]
  GI50: 18.4 µM
  TGI: > 100 µM
[15]
  GI50: 7.17 µM
  TGI: > 100 µM
[16]
  GI50: 4.11 µM
  TGI: > 45.2 µM
[17]
  GI50: 4.29 µM
  TGI: > 100 µM
[18]
  GI50: 3.05 µM
  TGI: > 84.2 µM
[19]
  GI50: 15.3 µM
  TGI: > 90.4 µM
[20]
  GI50: 15 µM
  TGI: > 69.1 µM
[21]
  GI50: 12.7 µM
  TGI: > 84.1 µM
[22]
  GI50: 10.9 µM
  TGI: > 100 µM
[23]
  GI50: 3.34 µM
  TGI: 20.6 µM
[24]
  GI50: > 70.6 µM
  TGI: > 100 µM
[25]
  GI50: 5.81 µM
  TGI: > 58.1 µM
[26]
  GI50: 5.81 µM
  TGI: > 100 µM
[27]
  GI50: 19.5 µM
  TGI: > 87.7 µM
[28]
  GI50: 6.19 µM
  TGI: > 25.7 µM
[29]
  GI50: 7.67 µM
  TGI: > 100 µM
[30]
  GI50: 4.43 µM
  TGI: > 61.3 µM
[31]
  GI50: 3.29 µM
  TGI: > 100 µM
[32]
  GI50: 1.3 µM
  TGI: 4 µM
[33]
  GI50: 2.87 µM
  TGI: > 40.6 µM
[34]
  GI50: 3.66 µM
  TGI: > 29.6 µM
[35]
  GI50: 8.05 µM
  TGI: > 79.1 µM
[36]
  GI50: 6.1 µM
  TGI: > 100 µM
[37]
  GI50: 15.9 µM
  TGI: > 100 µM
[38]
  GI50: 8.25 µM
  TGI: > 100 µM
[39]
  GI50: 8.65 µM
  TGI: > 100 µM
[40]
  TGI: > 45.8 µM
[41]
  GI50: 8.77 µM
  TGI: > 100 µM
[42]
  GI50: 38 µM
  TGI: > 100 µM
[43]
  GI50: 3.6 µM
  TGI: 23.4 µM
[44]
  GI50: 4.2 µM
  TGI: > 42.5 µM
[45]
  GI50: 9.92 µM
  TGI: > 53.1 µM
[46]
  GI50: 4.01 µM
  TGI: > 43.6 µM
[47]
  GI50: 5.38 µM
  TGI: > 100 µM
[48]
  GI50: 4.49 µM
  TGI: > 100 µM
[49]
  GI50: 6.38 µM
  TGI: > 100 µM
[50]
  GI50: 5.68 µM
  TGI: > 60.4 µM
[51]
  GI50: 17.3 µM
  TGI: > 100 µM
[52]
  GI50: 4.81 µM
  TGI: > 100 µM
[53]
  GI50: 4.02 µM
  TGI: > 100 µM
[54]
  GI50: 10.5 µM
  TGI: > 100 µM
[55]
  GI50: 8.73 µM
  TGI: > 100 µM
[56]
  GI50: 5.21 µM
  TGI: > 75.5 µM
[57]
  GI50: 13.5 µM
  TGI: > 93.2 µM
